Assay results as given in ChEMBL document CHEMBL1201862, “PubChem BioAssay data set” (2004).
Where a name gives a salt, the structure may show the parent alone. Calls of active or inactive are those of the source.

What was measured:
Salmon testes DNA = assay: DNA intercalators displacing acridine orange, dose response, artefact control for KSHV LANA DNA-binding inhibitor project, biochemical, fluorescence polarization, cherry-picked samples, set 2 (AID 504727); set-up: species or system Salmonidae
ORF 73 = ORF 73 (Human herpesvirus 8, UniProt O40947); assay: inhibitors of C-LANA binding to LBS DNA, dose response, biochemical, fluorescence polarization, cherry-picked samples (AID 504725); set-up: species or system Human gammaherpesvirus 8;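 note: fluorescence polarization of a labeled DNA duplex reporting LANA DNA binding; potency is for inhibitors that block LANA binding to the DNA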
[1] = target: Potassium voltage-gated channel subfamily KQT member 2 (Rattus norvegicus, UniProt O88943); assay: retigabine-insensitive KCNQ2 potentiators, concentration-response, dose response, cell-based, retigabine-insensitive compounds (AID 2654); type: functional
SUMO-activating enzyme [2] = target: T1, SUMO-activating enzyme (Homo sapiens, UniProt Q9UBT2); assay: inhibitors of in vitro SUMOylation cascade, primary screen, biochemical, HTRF, uHTS (AID 2006); type: protein-complex assay
[3] = target: T2, Zinc finger protein mex-5 (Caenorhabditis elegans, UniProt Q9XUB2); assay: MEX-5/TCR-2 RNA interaction inhibitors, dose response, biochemical, C. elegans, fluorescence polarization (AID 1960)
T2 sequence (Q9XUB2 whole entry): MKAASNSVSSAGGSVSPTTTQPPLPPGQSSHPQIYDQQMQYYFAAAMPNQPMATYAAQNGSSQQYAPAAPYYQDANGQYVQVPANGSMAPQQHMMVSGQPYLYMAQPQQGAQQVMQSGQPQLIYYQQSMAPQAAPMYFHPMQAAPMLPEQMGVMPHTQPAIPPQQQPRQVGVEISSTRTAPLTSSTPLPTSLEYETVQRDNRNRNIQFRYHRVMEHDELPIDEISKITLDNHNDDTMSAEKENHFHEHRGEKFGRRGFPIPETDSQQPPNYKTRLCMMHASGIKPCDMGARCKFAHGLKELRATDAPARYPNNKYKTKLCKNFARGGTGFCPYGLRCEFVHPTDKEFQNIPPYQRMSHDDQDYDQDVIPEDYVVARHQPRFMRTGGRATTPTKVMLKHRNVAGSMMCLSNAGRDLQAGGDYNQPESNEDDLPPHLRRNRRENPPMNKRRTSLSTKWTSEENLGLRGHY

[4] = target: T3, RNA-binding protein pos-1 (Caenorhabditis elegans, UniProt G5EF15); assay: inhibitors of POS-1/mex-3 RNA binding, dose response, biochemical, fluorescence polarization (AID 1964);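 note: purified POS-1 fused to maltose binding protein made in E. coli; potency of compounds blocking POS-1 binding to fluorescent RNA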
T3 sequence (G5EF15 whole entry): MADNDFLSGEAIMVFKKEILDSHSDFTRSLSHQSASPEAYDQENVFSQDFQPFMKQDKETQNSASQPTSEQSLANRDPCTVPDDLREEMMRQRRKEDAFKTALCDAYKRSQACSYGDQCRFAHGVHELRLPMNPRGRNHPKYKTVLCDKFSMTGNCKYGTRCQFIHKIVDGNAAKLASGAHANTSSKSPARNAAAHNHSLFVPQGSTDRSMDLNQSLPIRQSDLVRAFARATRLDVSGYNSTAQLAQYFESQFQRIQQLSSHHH

[5] = AlphaScreen signal interference compounds, dose response, artefact control for ARNT-TACC3 interaction inhibitor project, biochemical, luminescence, cherry-pick (AID 651705); type: functional;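 note: AlphaScreen bead proximity signal that flags compounds interfering with the detection technology; potency reflects signal decrease which marks the compound as an assay artifact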
[6] = target: T4, Intestinal-type alkaline phosphatase (Homo sapiens, UniProt P09923); assay: human intestinal alkaline phosphatase activators, dose response, biochemical, luminescence, uHTS hits (AID 463120); type: functional
[7] = target: T4, Intestinal-type alkaline phosphatase; assay: human IAP activators, dose response, biochemical, luminescent, uHTS hits, set 2 (AID 488817); type: functional;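 note: potency of activators that raise enzyme activity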
SUMO-activating enzyme [8] = target: T1, SUMO-activating enzyme; assay: SUMOylation inhibitor hit validation, confirmation, SUMOylation inhibitor project, biochemical, AlphaScreen (AID 2018); type: functional
[9] = target: T5, Polyadenylate-binding protein 1 (Homo sapiens, UniProt P11940); assay: PABP1 MLLE–PAM2 interaction inhibitors, dose response, miRNA deadenylation inhibitor project, biochemical, fluorescence polarization, Cy5-PAM2 peptide, secondary (AID 602260); type: functional; details: read-out: IC50_Mean
[10] = target: Intestinal-type alkaline phosphatase (Mus musculus, UniProt P24822); assay: PubChem AID 488874; type: functional
[11] = target: T5, Polyadenylate-binding protein 1; assay: PABP1 MLLE–PAM2 binding inhibitor potency, dose response, biochemical, fluorescence polarization, FITC-PAM2 peptide (AID 602259); type: functional; details: read-out: IC50_Mean
[12] = target: T6, Alkaline phosphatase, tissue-nonspecific isozyme (Homo sapiens, UniProt P05186); assay: TNAP enzyme activators, dose response, selectivity assay for human IAP activator project, biochemical, TNAP isozyme, human IAP uHTS hits (AID 488886); type: functional;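 note: potency of compounds raising TNAP activity as a selectivity check on IAP activators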
T6 sequence (P05186 whole entry): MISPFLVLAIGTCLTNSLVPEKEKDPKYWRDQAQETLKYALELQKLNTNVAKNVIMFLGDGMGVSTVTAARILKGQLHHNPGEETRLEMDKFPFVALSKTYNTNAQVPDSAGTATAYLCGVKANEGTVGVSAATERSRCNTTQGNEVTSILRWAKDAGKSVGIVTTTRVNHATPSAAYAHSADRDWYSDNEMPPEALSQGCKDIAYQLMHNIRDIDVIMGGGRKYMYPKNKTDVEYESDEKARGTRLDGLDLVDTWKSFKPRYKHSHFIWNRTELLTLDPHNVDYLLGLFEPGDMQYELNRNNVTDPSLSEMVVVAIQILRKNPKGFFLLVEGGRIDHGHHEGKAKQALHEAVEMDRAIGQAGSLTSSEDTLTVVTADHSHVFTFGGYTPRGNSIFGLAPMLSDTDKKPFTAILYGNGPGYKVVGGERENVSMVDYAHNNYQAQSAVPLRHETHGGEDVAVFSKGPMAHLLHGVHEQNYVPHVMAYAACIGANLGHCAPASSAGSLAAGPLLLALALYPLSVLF

T5 sequence (P11940 whole entry): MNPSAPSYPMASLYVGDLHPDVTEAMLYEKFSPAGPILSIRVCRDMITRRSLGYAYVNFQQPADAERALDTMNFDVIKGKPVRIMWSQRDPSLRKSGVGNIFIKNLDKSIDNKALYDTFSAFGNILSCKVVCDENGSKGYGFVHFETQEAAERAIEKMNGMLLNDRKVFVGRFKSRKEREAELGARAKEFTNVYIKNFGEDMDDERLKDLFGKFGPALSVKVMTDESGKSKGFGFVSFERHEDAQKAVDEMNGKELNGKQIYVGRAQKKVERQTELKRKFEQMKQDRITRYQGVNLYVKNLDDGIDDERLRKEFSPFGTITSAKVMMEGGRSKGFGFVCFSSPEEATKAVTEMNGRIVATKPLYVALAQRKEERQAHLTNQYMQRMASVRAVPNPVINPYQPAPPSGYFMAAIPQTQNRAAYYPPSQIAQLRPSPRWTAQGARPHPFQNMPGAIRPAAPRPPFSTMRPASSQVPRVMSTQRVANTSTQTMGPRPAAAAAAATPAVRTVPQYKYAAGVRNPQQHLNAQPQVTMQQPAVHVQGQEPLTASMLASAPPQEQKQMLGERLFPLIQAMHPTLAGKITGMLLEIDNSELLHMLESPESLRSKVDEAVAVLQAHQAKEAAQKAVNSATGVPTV
T1 sequence (Q9UBE0 whole entry): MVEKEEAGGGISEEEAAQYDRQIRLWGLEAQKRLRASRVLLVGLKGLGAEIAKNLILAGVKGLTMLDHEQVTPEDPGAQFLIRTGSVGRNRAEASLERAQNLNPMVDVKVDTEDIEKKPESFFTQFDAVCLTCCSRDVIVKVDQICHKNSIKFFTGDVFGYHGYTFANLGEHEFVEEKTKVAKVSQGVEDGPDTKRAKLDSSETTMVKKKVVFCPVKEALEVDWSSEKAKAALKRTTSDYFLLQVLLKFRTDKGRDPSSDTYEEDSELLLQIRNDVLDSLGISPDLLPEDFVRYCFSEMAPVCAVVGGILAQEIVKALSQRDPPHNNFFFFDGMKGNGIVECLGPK
T1 sequence (Q9UBT2 whole entry): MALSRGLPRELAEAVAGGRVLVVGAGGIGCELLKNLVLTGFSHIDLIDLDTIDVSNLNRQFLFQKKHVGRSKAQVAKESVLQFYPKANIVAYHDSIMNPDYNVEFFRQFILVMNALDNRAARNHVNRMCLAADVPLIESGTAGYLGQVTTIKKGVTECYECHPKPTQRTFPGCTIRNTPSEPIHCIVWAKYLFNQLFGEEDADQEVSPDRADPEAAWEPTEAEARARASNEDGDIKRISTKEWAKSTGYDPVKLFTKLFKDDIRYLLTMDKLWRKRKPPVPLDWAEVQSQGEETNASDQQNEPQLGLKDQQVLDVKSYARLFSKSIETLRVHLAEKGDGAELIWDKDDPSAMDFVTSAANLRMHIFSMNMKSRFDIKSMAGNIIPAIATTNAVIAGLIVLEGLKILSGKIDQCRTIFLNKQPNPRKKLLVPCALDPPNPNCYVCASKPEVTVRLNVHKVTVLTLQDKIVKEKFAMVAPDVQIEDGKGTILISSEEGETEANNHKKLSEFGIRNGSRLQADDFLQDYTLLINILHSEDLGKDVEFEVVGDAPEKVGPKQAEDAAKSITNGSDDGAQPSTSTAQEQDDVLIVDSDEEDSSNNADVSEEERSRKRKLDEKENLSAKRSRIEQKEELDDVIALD
T4 sequence (P09923 whole entry): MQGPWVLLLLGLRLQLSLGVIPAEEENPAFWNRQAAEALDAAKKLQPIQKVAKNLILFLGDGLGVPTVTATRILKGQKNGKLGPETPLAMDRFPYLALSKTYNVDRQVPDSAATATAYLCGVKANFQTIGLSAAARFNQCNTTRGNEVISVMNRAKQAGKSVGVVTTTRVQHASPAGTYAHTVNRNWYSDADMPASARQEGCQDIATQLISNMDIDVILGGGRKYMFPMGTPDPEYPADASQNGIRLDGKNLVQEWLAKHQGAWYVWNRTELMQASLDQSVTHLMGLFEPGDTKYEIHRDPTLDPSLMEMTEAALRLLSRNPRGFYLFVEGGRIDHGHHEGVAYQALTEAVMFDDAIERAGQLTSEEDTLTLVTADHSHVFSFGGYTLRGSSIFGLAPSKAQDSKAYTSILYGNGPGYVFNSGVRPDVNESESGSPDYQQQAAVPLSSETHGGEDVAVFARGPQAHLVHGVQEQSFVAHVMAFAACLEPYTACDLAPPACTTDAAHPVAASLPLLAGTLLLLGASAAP
ORF 73, sequence (O40947 whole entry): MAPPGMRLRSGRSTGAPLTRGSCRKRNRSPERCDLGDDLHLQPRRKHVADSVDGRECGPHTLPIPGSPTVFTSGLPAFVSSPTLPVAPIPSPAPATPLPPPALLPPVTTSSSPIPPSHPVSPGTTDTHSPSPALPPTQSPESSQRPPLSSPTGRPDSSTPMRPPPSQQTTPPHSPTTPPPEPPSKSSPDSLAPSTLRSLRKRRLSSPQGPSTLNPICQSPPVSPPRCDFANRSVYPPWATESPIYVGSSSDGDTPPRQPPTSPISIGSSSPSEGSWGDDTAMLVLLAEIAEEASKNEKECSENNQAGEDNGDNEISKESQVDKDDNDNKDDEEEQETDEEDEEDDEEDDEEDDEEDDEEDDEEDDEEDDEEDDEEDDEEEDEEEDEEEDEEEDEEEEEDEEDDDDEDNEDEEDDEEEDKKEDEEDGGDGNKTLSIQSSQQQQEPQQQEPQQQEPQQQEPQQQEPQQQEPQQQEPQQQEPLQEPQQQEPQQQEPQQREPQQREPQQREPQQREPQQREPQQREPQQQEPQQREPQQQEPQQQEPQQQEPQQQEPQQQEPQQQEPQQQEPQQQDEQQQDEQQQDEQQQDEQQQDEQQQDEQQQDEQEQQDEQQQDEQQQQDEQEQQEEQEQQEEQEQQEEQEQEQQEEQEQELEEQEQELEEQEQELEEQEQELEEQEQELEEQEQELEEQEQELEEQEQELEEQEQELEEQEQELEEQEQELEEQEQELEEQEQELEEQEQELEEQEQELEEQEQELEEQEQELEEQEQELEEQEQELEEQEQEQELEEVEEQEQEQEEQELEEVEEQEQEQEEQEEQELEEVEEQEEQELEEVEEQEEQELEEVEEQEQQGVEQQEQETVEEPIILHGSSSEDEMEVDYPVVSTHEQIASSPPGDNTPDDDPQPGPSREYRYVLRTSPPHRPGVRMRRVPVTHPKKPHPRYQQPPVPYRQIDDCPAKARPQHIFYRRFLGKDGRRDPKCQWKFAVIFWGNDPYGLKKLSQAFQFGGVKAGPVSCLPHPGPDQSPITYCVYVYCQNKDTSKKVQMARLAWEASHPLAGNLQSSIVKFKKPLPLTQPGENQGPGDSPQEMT
Intestinal-type alkaline phosphatase (Mus musculus, UniProt P24822), sequence (P24822 whole entry): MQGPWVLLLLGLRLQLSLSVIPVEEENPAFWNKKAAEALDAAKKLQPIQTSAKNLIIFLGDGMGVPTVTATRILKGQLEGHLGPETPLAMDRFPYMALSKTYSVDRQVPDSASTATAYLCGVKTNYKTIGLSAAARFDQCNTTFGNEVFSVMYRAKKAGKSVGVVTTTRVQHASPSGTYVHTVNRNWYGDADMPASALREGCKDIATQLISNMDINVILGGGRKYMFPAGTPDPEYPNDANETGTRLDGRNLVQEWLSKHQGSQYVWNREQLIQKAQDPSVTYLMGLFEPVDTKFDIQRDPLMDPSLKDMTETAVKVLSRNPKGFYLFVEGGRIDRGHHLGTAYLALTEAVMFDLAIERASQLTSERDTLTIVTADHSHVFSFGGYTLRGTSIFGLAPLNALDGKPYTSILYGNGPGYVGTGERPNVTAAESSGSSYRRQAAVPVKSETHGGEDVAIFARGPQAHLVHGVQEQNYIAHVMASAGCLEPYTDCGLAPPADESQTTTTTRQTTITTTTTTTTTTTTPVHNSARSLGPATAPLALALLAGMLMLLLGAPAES
Potassium voltage-gated channel subfamily KQT member 2, sequence (O88943 whole entry): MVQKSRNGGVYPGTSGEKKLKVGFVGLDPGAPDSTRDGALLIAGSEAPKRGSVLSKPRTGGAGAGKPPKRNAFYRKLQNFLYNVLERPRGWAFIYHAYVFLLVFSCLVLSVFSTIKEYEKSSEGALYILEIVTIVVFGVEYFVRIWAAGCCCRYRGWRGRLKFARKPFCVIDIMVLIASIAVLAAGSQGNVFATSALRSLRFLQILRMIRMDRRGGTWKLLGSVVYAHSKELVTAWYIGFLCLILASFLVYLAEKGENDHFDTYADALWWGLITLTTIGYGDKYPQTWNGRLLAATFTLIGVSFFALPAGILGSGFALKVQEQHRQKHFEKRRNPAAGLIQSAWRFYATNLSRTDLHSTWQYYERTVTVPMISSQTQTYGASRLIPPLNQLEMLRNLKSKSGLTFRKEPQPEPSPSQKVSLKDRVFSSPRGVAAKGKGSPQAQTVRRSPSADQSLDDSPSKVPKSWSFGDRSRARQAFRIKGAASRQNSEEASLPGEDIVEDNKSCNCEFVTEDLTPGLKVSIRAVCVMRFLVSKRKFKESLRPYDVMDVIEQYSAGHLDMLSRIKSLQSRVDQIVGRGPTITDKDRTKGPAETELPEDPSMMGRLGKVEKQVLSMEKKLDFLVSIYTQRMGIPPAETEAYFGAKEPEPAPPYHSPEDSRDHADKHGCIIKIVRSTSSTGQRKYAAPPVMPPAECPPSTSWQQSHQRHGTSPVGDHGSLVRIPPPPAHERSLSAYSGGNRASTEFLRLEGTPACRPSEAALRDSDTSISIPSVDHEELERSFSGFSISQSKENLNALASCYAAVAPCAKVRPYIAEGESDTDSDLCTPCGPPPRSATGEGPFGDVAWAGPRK

Q: With `Cc1ccc(N(CC(=O)N2CCOCC2)S(C)(=O)=O)cc1` as the molecule, how does the AC50 (Salmon testes DNA) read?
A: 70.1 µM (active)

Q: And the AC50 (ORF 73)?
A: 20.1 µM (active)

Q: With `Cc1cccc(NC(=O)Nc2cccnc2)c1` as the molecule, how does the EC50 [1] read?
A: 16.8 µM (active)

Q: For `NC(CO)C(=O)NNCc1ccc(O)c(O)c1O` (centres undefined) [BENSERAZIDE HYDROCHLORIDE], which IC50 (SUMO-activating enzyme [2]) is on record?
A: 23.2 µM (active)

Q: What about the EC50 [3] of the same molecule?
A: 0.112 µM (active)

Q: And the EC50 [4]?
A: 37.5 µM (active)

Q: What about the AC50 [5] of the same molecule?
A: 96.7 µM (active)

Q: What about the EC50 [6] of the same molecule?
A: 5.47 µM (active)

Q: What about the EC50 [7] of the same molecule?
A: 8.88 µM (active)

Q: What about the IC50 (SUMO-activating enzyme [8]) of the same molecule?
A: 1.66 µM (active)

Q: What about the IC50 [9] of the same molecule?
A: > 66 µM (inactive)

Q: And the IC50 [10]?
A: 50.9 µM (active)

Q: What about the IC50 [11] of the same molecule?
A: 45 µM (inactive)

Q: And the EC50 [12]?
A: > 100 µM (inactive)
